Source: publication PMC6297231 (Nature Communications, 2018)
Read-outs that look alike come from different tables or passages of the source. Values belong to the molecule of their own block, whether it stands above or below them. Where no end group is shown, it is not given here.

What was measured:
[1] = molecular target: T1, Mcl-1 (Homo sapiens, UniProt Q07820); assay: SPR direct binding assay; set-up: 6His-tagged Mcl-1 protein (E171-G327) was immobilized using NTA capture-coupling
Target sequence in this assay (Q07820 171-327): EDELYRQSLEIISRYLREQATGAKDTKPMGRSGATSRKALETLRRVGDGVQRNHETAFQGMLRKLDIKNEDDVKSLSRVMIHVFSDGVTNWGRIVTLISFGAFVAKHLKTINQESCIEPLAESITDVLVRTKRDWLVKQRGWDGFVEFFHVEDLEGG
Experimental: A Biacore T200 instrument (GE Healthcare) was used to monitor binding interactions using a direct binding assay format. 6His-tagged Mcl-1 protein (E171-G327) was immobilized using NTA capture-coupling at a flow rate of 10 μL min^-1 and using an immobilization running buffer containing 10 mM HEPES, 300 mM NaCl, 1 mM TCEP, and 0.05% Tween-20 at 25 °C. […] Approximately 300 response units of Mcl-1 protein (2 μg mL^-1 in immobilization running buffer) were immobilized using the ‘aim for’ function in the T200 Control Software (GE Healthcare). Remaining reactive esters were blocked using a 7 min injection of 1 M ethanolamine. Reference flow cells were prepared without protein. All binding measurements were performed in 10 mM Tris, pH 7.5, 300 mM NaCl, 1 mM TCEP, 1% DMSO, and 0.02% Tween-20 at 25 °C at a flow rate of 30 μL min^-1. Buffer was primed through the instrument overnight to stabilize the surface before subsequent assay steps. Prior to kinetic analysis, solvent calibration and double referencing subtractions were made to eliminate bulk refractive index changes, injection noise, and data drift. Affinity and binding kinetic parameters were determined by global fitting to a 1:1-binding model within the Biacore T200 Evaluation Software (GE Healthcare).

[2] = molecular target: T1, Mcl-1; assay: TR-FRET binding assay; set-up: N-terminal GST-tagged-Mcl-1 protein from Mcl-1 (E171-G327); made in house; host or cells: E. coli
Experimental: Percent inhibition was calculated based upon min (control compound) vs. max (DMSO) according to Eq. (2) and the IC50 was derived the smart fit curve (Genedata screener) of % inhibition vs. concentration. Ki values were calculated from Eq.
Target sequence in this assay (Q07820 171-327): as above

[3] = molecular target: T1, Mcl-1; assay: 2D protein-observed NMR titration (TROSY); format: binding; set-up: The 6His-TEV-Mcl-1(162–326) construct in a pET vector was expressed in BL21-GOLD cells; 6His-TEV (N, cleaved yes); made in house; host or cells: E. coli BL21-GOLD
Experimental: The 6His-TEV-Mcl-1(162–326) construct in a pET vector was expressed in BL21-GOLD cells and inducted by IPTG. ^15N-labeled GS-Mcl-1 was obtained by growing cells in Isogro-15N (Sigma-Aldrich) media (5 g L^-1) containing 50 µg mL^-1 Kanamycin and 12.5 µg mL^-1 Tetracycline. Expression was induced at OD^600 = 0.8 with 0.1 mM IPTG. Cells were then incubated overnight at 30 °C, harvested by centrifugation and lysed by sonication in buffer H (40 mM Hepes pH 8.0, 300 mM NaCl, 10 mM imidazole, 1 mM TCEP), supplemented with 0.3 mg mL^-1 lysozyme, 2.5 U mL^-1 benzonase, and EDTA-free protease inhibitors (Roche). The sample was centrifuged and supernatant collected and incubated with Ni-NTA resin (60 min at 4 °C). […]
NMR spectra were recorded at 298 K on a Bruker Avance 600 MHz spectrometer running Topspin 2.3 equipped with a 5 mm TCI Cryoprobe with Z-axis gradients. […] Binding was detected by ^1H–^15N 2D Transverse relaxation optimized spectroscopy (TROSY) spectra of the protein (F2 × F1) 2048 × 50 complex pairs (in Echo-Antiecho mode), 12019 × 1800 Hz sweep width, 85.2 ms × 27.8 ms acquisition times. Compound titration was recorded from fresh compound stock in DMSO-d6, and spectra were recorded at ligand concentrations of 0.04, 0.08, 0.16, 0.32, 0.63, and 1.24 mM. […]
Target sequence in this assay (Q07820 162-326): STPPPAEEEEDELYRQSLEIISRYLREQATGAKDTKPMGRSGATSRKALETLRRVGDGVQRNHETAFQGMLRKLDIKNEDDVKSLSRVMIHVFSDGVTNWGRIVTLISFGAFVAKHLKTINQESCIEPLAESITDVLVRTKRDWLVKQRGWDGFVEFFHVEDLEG

[4] = system: MOLP8; assay: Caspase-3/7 activation assay; format: cell-based; conditions: Homo sapiens, MOLP-8
Experimental: (§1) Cells were plated at 3000 cells/well in 384-well white plates in corresponding cell growth media. […] Caspase-3/7 activation was subsequently determined using a Caspase-Glo 3/7 Reagent (Promega) and viability was assayed using the CellTiter-Glo Reagent (Promega) as described in manufacturer’s instructions. Dose–response curves for caspase-3/7 activation and viability were plotted and analyzed (including EC50 and GI50 determination) using GraphPad Prism.

[5] = system: H23; assay: Caspase-3/7 activation assay; format: cell-based; conditions: Homo sapiens, NCI-H23
Experimental: as §1

[6] = system: MV411; assay: Caspase-3/7 activation assay; format: cell-based; conditions: Homo sapiens, MV4-11
Experimental: as §1

[7] = molecular target: T2, N-Terminal 6His-tagged Bfl-1 protein from Bfl-1 (M1-K151) (UniProt Q16548 1-151); assay: AlphaScreen or HTRF; TR-FRET: His-tagged protein with Eu-labeled anti-His antibody and HyLite Fluor 647-labeled peptide; 384-well plates, 24 °C, 120-180 min; how the peptide Kd was determined is not told; conditions: both partners purified
T2 construct: Bfl-1 (Bfl-1/A1), residues M1-K151; also called His-Bfl-1; source: E. coli, purified (Ni-NTA resin, size-exclusion chromatography); not shown: 6His, N-terminal, kept
T2 sequence (looked up): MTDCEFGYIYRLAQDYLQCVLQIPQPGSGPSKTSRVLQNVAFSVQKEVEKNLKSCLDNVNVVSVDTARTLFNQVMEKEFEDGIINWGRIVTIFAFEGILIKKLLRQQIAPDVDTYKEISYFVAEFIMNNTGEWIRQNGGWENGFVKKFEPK

[8] = molecular target: T3, N-terminal GST-tagged-Mcl-1 protein from Mcl-1 (E171-G327) (human, UniProt Q07820 171-327); assay: AlphaScreen or HTRF; TR-FRET: GST-tagged protein with Eu-labeled anti-GST antibody and HyLite Fluor 647-labeled peptide; 384-well plates, 24 °C, 120-180 min; how the peptide Kd was determined is not told; conditions: both partners purified
T3 construct: Mcl-1, residues E171-G327; also called GST-Mcl-1; not shown: GST, N-terminal, kept

[9] = molecular target: T4, N-terminal GST-tagged Bcl-xL protein from Bcl-xL (1-209) (UniProt Q07817-1 1-209); assay: as above; conditions: both partners purified
T4 construct: Bcl-xL, residues 1-209; also called GST-Bcl-xl; not shown: GST, N-terminal, kept
T4 sequence (Q07817 1-209): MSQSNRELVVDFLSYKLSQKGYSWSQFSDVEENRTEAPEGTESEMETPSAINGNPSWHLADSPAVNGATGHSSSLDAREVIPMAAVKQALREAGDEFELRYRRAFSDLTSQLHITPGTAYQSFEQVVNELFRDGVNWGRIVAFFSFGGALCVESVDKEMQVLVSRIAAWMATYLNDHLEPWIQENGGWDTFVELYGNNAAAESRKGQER

T3 sequence (Q07820 171-327): as the sequence (Q07820 171-327) above

- Kd ([1]; mean of log transformed data, read-out: MCL1 SPR pKd (converted)): 646 nM
- Kd ([1]; read-out: Mcl-1 SPR, Kd): 650 nM
- IC50 ([2]; mean of log transformed data, read-out: MCL1 FRET pIC50 (converted)): 288 nM
- IC50 ([2]; read-out: Mcl-1 FRET, IC50): 290 nM
- Kd ([3]; fast exchange shifts, second weaker binding event, read-out: Kd, binding event 2): 141000 ± 8000 nM
- Kd ([3]; slow exchange binding, read-out: Kd, binding event 1): < 5000 nM
- EC50 ([4]; caspase activation, Mcl-1-dependent cell line, read-out: MOLP-8, EC50): > 31500 nM
- EC50 ([4]; mean of log transformed data, read-out: MOLP-8 caspase pEC50 (converted)): > 31600 nM
- EC50 ([5]; caspase activation, Mcl-1-dependent cell line, read-out: NCI-H23, EC50): > 31500 nM
- EC50 ([5]; mean of log transformed data, read-out: NCI-H23 caspase pEC50 (converted)): > 31600 nM
- EC50 ([6]; caspase activation, Mcl-1-dependent cell line, read-out: MV4-11, EC50): > 31500 nM
- EC50 ([6]; mean of log transformed data, read-out: MV4-11 caspase pEC50 (converted)): > 31600 nM
Molecule: Cc1nn(C)c(C)c1-c1cccc2c(CCCOc3cccc4ccccc34)c(C(=O)O)[nH]c12 [Compound 2, reference compound]

- Kd [7]: 10 nM
- Kd [8]: 1.5 nM
B1: HyLite Fluor 647-labeled Bim peptide C (Hilyte647 C2 Maleimide)-WIAQELRRIGDEFN (peptide)
peptide: C(HiLyte Fluor 647 C2 maleimide)WIAQELRRIGDEFN
notes: added N-terminal cysteine that carries the dye; Bim BH3 stretch; also called Hylite Bim peptide

- Kd [9]: 10 nM
B2: HyLite Fluor 647-labeled BAK peptide C(Hilyte647 C2 Maleimide)-GGGQVGRQLAIIGDDINR (peptide)
peptide: C(HiLyte Fluor 647 C2 maleimide)GGGQVGRQLAIIGDDINR
notes: added N-terminal cysteine that carries the dye, and glycine spacer; Bak BH3 stretch; also called Hylite Bak peptide
